Data taken from publication PMC10838953.

Legend:
MKNK2 = MKNK2 (Homo sapiens, UniProt Q9HBH9); test: biochemical; details: read-out: %Ctrl @ 2000nM
LKB1 = LKB1 (Homo sapiens, UniProt Q15831); test: biochemical; details: read-out: %Ctrl @ 2000nM
KIT(D816V) = KIT(D816V) (Homo sapiens, UniProt P10721, D816V); test: biochemical; details: read-out: %Ctrl @ 2000nM
NIM1 = NIM1 (Homo sapiens, UniProt Q8IY84); test: biochemical; details: read-out: %Ctrl @ 2000nM
SGK3 = SGK3 (Homo sapiens, UniProt Q96BR1); test: biochemical; details: read-out: %Ctrl @ 2000nM
[1] = target: RSK1(Kin.Dom.1-N-terminal) (Homo sapiens, UniProt Q15418); test: biochemical; details: read-out: %Ctrl @ 2000nM
Chain of RSK1(Kin.Dom.1-N-terminal) (Q15418 1-391 limits assumed): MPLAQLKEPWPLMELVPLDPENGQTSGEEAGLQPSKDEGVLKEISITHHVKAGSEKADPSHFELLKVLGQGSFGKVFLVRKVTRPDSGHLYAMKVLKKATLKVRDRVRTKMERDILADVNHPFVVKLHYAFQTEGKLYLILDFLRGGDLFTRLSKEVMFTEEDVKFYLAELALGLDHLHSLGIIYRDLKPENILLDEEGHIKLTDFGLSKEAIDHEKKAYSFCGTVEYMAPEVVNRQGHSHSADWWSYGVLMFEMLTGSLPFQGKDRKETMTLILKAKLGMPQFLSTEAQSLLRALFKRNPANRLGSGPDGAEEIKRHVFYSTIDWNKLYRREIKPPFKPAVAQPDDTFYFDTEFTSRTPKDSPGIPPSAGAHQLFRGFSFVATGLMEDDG

PIK3CA(H1047Y) = PIK3CA(H1047Y) (Homo sapiens, UniProt P42336, H1047Y); test: biochemical; details: read-out: %Ctrl @ 2000nM
Chain of PIK3CA(H1047Y) (P42336 whole entry H1047Y): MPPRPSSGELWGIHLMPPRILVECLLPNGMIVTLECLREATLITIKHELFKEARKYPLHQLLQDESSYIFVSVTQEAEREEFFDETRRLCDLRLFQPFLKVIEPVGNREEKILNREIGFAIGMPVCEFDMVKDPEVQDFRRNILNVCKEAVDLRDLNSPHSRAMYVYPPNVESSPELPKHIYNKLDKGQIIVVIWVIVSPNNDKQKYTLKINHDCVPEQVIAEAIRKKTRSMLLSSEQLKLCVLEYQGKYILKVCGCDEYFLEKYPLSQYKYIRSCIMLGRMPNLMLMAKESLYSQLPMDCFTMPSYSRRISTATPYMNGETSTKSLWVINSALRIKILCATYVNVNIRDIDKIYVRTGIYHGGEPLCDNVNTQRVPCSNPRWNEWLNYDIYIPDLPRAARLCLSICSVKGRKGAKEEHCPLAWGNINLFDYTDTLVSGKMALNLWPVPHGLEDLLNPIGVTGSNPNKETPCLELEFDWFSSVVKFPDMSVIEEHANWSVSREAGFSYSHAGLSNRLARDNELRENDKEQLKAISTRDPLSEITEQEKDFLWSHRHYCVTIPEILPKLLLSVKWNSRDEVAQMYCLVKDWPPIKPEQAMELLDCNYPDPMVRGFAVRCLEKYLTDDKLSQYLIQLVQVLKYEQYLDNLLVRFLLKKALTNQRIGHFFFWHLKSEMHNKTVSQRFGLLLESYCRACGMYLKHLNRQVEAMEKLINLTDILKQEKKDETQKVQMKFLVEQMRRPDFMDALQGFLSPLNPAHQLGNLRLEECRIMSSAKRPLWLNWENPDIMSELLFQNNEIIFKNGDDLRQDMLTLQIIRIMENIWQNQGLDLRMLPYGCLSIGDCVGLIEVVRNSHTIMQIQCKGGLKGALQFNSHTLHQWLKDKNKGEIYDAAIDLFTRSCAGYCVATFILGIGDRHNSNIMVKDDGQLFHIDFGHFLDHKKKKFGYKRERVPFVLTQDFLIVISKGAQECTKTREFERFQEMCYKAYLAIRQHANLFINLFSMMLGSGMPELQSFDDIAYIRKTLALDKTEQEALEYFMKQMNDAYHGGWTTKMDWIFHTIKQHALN

RAF1 = RAF1 (Homo sapiens, UniProt P04049); test: biochemical; details: read-out: %Ctrl @ 2000nM
Chain of RAF1 (P04049 whole entry): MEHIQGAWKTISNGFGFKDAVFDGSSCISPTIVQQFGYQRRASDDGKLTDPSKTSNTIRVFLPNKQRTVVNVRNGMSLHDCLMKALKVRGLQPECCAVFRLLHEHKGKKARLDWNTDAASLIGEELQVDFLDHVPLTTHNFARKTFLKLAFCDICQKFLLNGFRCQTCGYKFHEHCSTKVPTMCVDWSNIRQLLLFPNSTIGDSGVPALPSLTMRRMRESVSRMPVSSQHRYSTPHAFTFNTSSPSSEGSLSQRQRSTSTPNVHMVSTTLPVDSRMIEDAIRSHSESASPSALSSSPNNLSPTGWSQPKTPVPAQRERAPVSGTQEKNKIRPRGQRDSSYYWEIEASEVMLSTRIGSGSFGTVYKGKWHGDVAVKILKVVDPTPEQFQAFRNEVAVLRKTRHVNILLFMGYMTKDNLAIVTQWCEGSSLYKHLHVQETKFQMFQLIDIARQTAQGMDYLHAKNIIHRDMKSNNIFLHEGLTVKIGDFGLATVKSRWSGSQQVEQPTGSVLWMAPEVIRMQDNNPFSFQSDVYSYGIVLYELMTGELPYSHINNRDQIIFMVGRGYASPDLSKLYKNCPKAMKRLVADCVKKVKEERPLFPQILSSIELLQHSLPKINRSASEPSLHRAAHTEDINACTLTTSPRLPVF

TAOK3 = TAOK3 (Homo sapiens, UniProt Q9H2K8); test: biochemical; details: read-out: %Ctrl @ 2000nM
EPHB6 = EPHB6 (Homo sapiens, UniProt O15197); test: biochemical; details: read-out: %Ctrl @ 2000nM
ERBB4 = ERBB4 (Homo sapiens, UniProt Q15303); test: biochemical; details: read-out: %Ctrl @ 2000nM
NEK2 = NEK2 (Homo sapiens, UniProt P51955); test: biochemical; details: read-out: %Ctrl @ 2000nM
EGFR(E746-A750del) = EGFR(E746-A750del) (Homo sapiens, UniProt P00533, DEL746-750); test: biochemical; details: read-out: %Ctrl @ 2000nM
PIK3CA(E545K) = PIK3CA(E545K) (Homo sapiens, UniProt P42336, E545K); test: biochemical; details: read-out: %Ctrl @ 2000nM
Chain of PIK3CA(E545K) (P42336 whole entry E545K): as the sequence (P42336 whole entry H1047Y) above, with E545K, Y1047H counted along it

TSSK1B = TSSK1B (Homo sapiens, UniProt Q9BXA7); test: biochemical; details: read-out: %Ctrl @ 2000nM
Chain of TSSK1B (Q9BXA7 whole entry): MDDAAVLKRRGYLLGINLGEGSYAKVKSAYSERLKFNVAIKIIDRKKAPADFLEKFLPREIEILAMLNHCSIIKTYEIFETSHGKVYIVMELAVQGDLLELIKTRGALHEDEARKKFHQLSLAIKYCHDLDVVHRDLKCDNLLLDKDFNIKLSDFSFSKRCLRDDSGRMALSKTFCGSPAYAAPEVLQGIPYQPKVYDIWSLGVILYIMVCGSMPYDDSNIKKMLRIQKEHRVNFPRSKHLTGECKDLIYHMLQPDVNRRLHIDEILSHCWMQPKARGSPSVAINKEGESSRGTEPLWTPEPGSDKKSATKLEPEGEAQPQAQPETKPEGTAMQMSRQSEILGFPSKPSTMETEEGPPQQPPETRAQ

IGF1R = IGF1R (Homo sapiens, UniProt P08069); test: biochemical; details: read-out: %Ctrl @ 2000nM
DAPK3 = DAPK3 (Homo sapiens, UniProt O43293); test: biochemical; details: read-out: %Ctrl @ 2000nM
PIK3CA(E545A) = PIK3CA(E545A) (Homo sapiens, UniProt P42336, E545A); test: biochemical; details: read-out: %Ctrl @ 2000nM
CSNK1G2 = CSNK1G2 (Homo sapiens, UniProt P78368); test: biochemical; details: read-out: %Ctrl @ 2000nM
NEK4 = NEK4 (Homo sapiens, UniProt P51957); test: biochemical; details: read-out: %Ctrl @ 2000nM
ABL1-phosphorylated = ABL1-phosphorylated (Homo sapiens, UniProt P00519); test: biochemical; details: read-out: %Ctrl @ 2000nM
PAK6 = PAK6 (Homo sapiens, UniProt Q9NQU5); test: biochemical; details: read-out: %Ctrl @ 2000nM
FGFR2 = FGFR2 (Homo sapiens, UniProt P21802); test: biochemical; details: read-out: %Ctrl @ 2000nM
Chain of FGFR2 (P21802 22-821): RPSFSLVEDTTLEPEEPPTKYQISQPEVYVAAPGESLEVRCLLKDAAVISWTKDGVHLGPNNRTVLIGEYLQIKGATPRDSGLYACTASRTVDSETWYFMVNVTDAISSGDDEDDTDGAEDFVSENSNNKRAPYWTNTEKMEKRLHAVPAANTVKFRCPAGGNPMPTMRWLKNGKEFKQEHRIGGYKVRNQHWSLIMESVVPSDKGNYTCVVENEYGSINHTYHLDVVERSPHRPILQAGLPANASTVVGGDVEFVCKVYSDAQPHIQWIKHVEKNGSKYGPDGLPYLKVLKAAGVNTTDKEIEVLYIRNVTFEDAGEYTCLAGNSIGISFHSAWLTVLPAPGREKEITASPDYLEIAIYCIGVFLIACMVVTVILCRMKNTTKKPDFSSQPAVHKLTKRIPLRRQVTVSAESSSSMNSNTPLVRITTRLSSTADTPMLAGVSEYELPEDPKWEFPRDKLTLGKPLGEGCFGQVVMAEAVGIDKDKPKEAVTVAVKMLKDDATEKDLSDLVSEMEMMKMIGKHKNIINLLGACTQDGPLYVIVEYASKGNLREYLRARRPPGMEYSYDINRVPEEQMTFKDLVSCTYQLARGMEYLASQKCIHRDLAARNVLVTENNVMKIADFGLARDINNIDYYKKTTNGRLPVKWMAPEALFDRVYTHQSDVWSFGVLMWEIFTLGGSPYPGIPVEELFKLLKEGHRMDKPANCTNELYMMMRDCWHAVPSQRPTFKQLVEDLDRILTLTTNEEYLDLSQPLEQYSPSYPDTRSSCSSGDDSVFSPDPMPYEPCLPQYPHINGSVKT

ABL2 = ABL2 (Homo sapiens, UniProt P42684); test: biochemical; details: read-out: %Ctrl @ 2000nM
LRRK2 = LRRK2 (Homo sapiens, UniProt Q5S007); test: biochemical; details: read-out: %Ctrl @ 2000nM
MCF10A cells = details: high concentrations
[2] = target: EGFR(L747-S752del, P753S) (Homo sapiens, UniProt P00533, DEL747-752/P753S); test: biochemical; details: read-out: %Ctrl @ 2000nM
Chain of EGFR(L747-S752del, P753S) (P00533 with tags, fused parts or gaps DEL747-752/P753S limits assumed): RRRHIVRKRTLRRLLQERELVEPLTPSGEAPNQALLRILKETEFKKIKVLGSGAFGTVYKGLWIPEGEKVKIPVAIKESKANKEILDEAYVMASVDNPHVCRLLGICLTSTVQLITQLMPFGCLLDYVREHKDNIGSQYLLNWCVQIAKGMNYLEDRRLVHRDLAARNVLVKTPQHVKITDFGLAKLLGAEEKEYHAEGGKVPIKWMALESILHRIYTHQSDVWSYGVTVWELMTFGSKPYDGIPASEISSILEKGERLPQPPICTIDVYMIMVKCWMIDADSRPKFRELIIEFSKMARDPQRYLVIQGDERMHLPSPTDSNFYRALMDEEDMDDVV

RIOK1 = RIOK1 (Homo sapiens, UniProt Q9BRS2); test: biochemical; details: read-out: %Ctrl @ 2000nM
RET(M918T) = RET(M918T) (Homo sapiens, UniProt P07949, M918T); test: biochemical; details: read-out: %Ctrl @ 2000nM
BRSK2 = BRSK2 (Homo sapiens, UniProt Q8IWQ3); test: biochemical; details: read-out: %Ctrl @ 2000nM
AURKA = AURKA (Homo sapiens, UniProt O14965); test: biochemical; details: read-out: %Ctrl @ 2000nM
[3] = test system: RPTEC (renal proximal tubule epithelial cells); details: high concentrations
ERN1 = ERN1 (Homo sapiens, UniProt O75460); test: biochemical; details: read-out: %Ctrl @ 2000nM
PIK3CA(Q546K) = PIK3CA(Q546K) (Homo sapiens, UniProt P42336, Q546K); test: biochemical; details: read-out: %Ctrl @ 2000nM
PIK3CA(C420R) = PIK3CA(C420R) (Homo sapiens, UniProt P42336, C420R); test: biochemical; details: read-out: %Ctrl @ 2000nM
PARP = details: 786-O cells; 2.5-15 μM; 48 h
CAMK4 = CAMK4 (Homo sapiens, UniProt Q16566); test: biochemical; details: read-out: %Ctrl @ 2000nM
Chain of CAMK4 (Q16566 whole entry): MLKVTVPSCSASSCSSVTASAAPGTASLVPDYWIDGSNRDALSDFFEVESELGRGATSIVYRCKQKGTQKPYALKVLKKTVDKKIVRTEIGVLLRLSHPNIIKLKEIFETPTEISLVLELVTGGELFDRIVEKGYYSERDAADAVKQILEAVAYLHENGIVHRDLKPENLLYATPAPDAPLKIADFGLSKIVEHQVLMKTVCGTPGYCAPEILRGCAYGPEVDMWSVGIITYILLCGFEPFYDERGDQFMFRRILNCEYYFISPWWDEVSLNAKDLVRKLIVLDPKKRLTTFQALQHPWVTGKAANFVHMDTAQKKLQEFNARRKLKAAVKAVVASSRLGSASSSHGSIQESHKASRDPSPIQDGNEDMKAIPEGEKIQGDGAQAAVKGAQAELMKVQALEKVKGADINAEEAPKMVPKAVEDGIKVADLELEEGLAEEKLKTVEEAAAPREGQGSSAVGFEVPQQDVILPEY

PFTAIRE2 = PFTAIRE2 (Homo sapiens, UniProt Q96Q40); test: biochemical; details: read-out: %Ctrl @ 2000nM
Chain of PFTAIRE2 (Q96Q40 whole entry): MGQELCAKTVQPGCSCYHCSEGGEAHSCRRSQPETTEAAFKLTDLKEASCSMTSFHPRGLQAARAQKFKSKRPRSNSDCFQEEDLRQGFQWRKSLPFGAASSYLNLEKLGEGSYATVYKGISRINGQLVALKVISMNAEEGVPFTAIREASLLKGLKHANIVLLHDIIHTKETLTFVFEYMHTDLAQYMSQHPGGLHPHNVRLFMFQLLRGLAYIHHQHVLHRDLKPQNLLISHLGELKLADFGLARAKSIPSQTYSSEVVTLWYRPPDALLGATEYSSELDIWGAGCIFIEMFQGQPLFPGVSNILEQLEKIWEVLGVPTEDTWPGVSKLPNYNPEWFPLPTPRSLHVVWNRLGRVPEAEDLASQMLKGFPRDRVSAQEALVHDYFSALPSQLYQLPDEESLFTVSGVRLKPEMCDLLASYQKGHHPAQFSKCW

MLK2 = MLK2 (Homo sapiens, UniProt Q02779); test: biochemical; details: read-out: %Ctrl @ 2000nM
[4] = target: TYK2(JH2domain-pseudokinase) (Homo sapiens, UniProt P29597); test: biochemical; details: read-out: %Ctrl @ 2000nM
MAP3K1 = MAP3K1 (Homo sapiens, UniProt Q13233); test: biochemical; details: read-out: %Ctrl @ 2000nM

Chain of NIM1 (Q8IY84 whole entry): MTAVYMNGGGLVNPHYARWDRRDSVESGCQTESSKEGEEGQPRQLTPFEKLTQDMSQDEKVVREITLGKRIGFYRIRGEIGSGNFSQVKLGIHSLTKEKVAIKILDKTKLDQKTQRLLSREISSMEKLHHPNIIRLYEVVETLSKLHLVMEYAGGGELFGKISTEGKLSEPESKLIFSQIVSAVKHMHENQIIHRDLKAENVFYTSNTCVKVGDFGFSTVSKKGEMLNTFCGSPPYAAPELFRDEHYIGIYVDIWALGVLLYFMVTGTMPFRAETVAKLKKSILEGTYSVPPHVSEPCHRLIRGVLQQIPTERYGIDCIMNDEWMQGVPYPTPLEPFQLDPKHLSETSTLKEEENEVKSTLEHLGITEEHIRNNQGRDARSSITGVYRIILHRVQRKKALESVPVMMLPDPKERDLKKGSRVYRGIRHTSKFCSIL

CC(C)COC(=O)c1[nH]c2ccc(F)cc2c1-c1cn(CC2CCN(CCNS(=O)(=O)c3ccc(CC(C)C)cc3)CC2)nn1 [AB668, isobutyl 5-fluoro-3-(1-((1-(2-((4-isobutylphenyl)sulfonamido)ethyl)piperidin-4-yl)methyl)-1H-1,2,3-triazol-4-yl)-1H-indole-2-carboxylate]
remaining activity at 2 µM (MKNK2): 100%
remaining activity at 2 µM (LKB1): 89%
remaining activity at 2 µM (KIT(D816V)): 95%
remaining activity at 2 µM (NIM1): 84%
remaining activity at 2 µM (SGK3): 99%
remaining activity at 2 µM [1]: 100%
remaining activity at 2 µM (PIK3CA(H1047Y)): 100%
remaining activity at 2 µM (RAF1): 100%
remaining activity at 2 µM (TAOK3): 100%
remaining activity at 2 µM (EPHB6): 82%
remaining activity at 2 µM (ERBB4): 97%
remaining activity at 2 µM (NEK2): 90%
remaining activity at 2 µM (EGFR(E746-A750del)): 88%
remaining activity at 2 µM (PIK3CA(E545K)): 88%
remaining activity at 2 µM (TSSK1B): 91%
remaining activity at 2 µM (IGF1R): 73%
remaining activity at 2 µM (DAPK3): 100%
remaining activity at 2 µM (PIK3CA(E545A)): 100%
remaining activity at 2 µM (CSNK1G2): 75%
remaining activity at 2 µM (NEK4): 86%
remaining activity at 2 µM (ABL1-phosphorylated): 82%
remaining activity at 2 µM (PAK6): 90%
remaining activity at 2 µM (FGFR2): 93%
remaining activity at 2 µM (ABL2): 94%
remaining activity at 2 µM (LRRK2): 65%
cytotoxicity (MCF10A cells): no cytotoxicity
remaining activity at 2 µM [2]: 98%
remaining activity at 2 µM (RIOK1): 80%
remaining activity at 2 µM (RET(M918T)): 94%
remaining activity at 2 µM (BRSK2): 79%
remaining activity at 2 µM (AURKA): 100%
cytotoxicity [3]: no cytotoxicity
remaining activity at 2 µM (ERN1): 100%
remaining activity at 2 µM (PIK3CA(Q546K)): 100%
remaining activity at 2 µM (PIK3CA(C420R)): 100%
cleavage of PARP (PARP): cleavage of PARP
remaining activity at 2 µM (CAMK4): 100%
remaining activity at 2 µM (PFTAIRE2): 88%
remaining activity at 2 µM (MLK2): 73%
remaining activity at 2 µM [4]: 100%
%Ctrl @ 2000nM (FLT3(ITD)): 93%
remaining activity at 2 µM (MAP3K1): 91%
